Measurements reported in patent US20120177710A1, “TOPICALLY APPLICABLE COMPOSITION FOR USE AS A SKIN BLEACHING AGENT” (DSM IP ASSETS B.V., priority 2005, published 2012).

Tested on: MelanoDerm Mel-300B tissues of the dark skin type
Experiment: Reduction in melanin content after treatment of MelanoDerm tissues of the dark skin type
Format: cell-based
Conditions: absorption at 450 nm, control = 100; for Melanin content in % 8 days of treatment, measured after 16 days: 10 mM per tissue topically, then a further eight days in normal medium without test substance; for Melanin content in % after 16 days of treatment: test substance applied topically as aqueous solution, 10 mM per tissue, renewed every 48 hours
Procedure: Determination of the Reduction in Melanin Content after the Treatment of Melanoderm Tissues of the Dark Skin Type with Test Substances
Test substances: compound 1 and cystamine as standard • Cultivation of the Tissues and Application of the Test Substances
The tissues, treated according to the manufacturer's instructions, were transferred to 6-well plates containing 3 ml of medium per well. The tissues were placed on membrane inserts (Transwell-Clear from Corning). 2 ml of medium were pipetted into the lower compartment and 1 ml of medium into the upper compartment. The test substances were applied topically as an aqueous solution at a rate of 10 mM per tissue. The medium and the test substance were renewed every 48 hours by rinsing the surface of the tissues with 500 μl of warm PBS and applying fresh test substance. After 8 days the test substance was removed from two tissues per treatment type and cultivation was continued for a further eight days with normal medium not containing test substance. The other two tissues per treatment type were incubated further with test substance. The experiment lasted a total of 16 days. • Extraction of the Melanin
The membranes with the pigmented epidermis were cut out of the holders with a scalpel and transferred to screw-capped Eppendorf tubes. 200 μl of 1% SDS in 10 mM Tris, 0.05 mM EDTA pH 6.8 and 20 μl of Proteinase K were pipetted into each tube. The Eppendorf tubes were incubated overnight in a Thermomixer at 45° C. The following morning a further 20 μl of Proteinase K were pipetted into each tube and incubation was continued for 6 hours. The lysate was rendered basic by the addition of 25 μl of 500 mM NaHCO3 and incubated in the Thermomixer for 30 min at 80° C. Fats and proteins were removed from the lysate by treatment with 200 μl of methanol/chloroform (2:1). 3×100 μl of supernatant were pipetted into a 96-well plate and the absorption was measured at 450 nm. • Results

| SMILES | Melanin content in % 8 days of treatment, measured after 16 days [%] | Melanin content in % after 16 days of treatment [%] |
| --- | --- | --- |
| NCCSSCCN [Cystamine (standard), bis(2-aminoethyl)disulfide] | 52 | 30 |
| N=C(N)NCCSSCCNC(=N)N [Compound 1] | 23 | 12 |
